Test [1] has as its target IKKε (Homo sapiens (Human), UniProt Q14164). Kind of test: IKKε TR-FRET enzymatic assay. It counts as biochemical. The conditions noted are these: read-out: IKKe IC50. On the technique in general: In TR-FRET formats the signal depends on donor and acceptor labels being close together.
The target in test [2] is TBK1 (Homo sapiens (Human), UniProt Q9UHD2). Description: TBK1 TR-FRET enzymatic assay.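 Note: phosphorylation of a biotinylated Ser/Thr peptide by purified full-length recombinant TBK1, read by TR-FRET after 240 min at 25 °C, IC50 is the geometric mean of at least four runs.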
The target of test [3] is hJAK2 (Homo sapiens (Human), UniProt O60674). Kind of test: hJAK2 LANCE TR-FRET enzymatic assay. It counts as biochemical. The conditions noted are these: read-out: JAK2 IC50.
[4] abbreviates: TR-FRET, 2×Km ATP, geometric mean of minimum four determinations.

The structures appear in SMILES notation. Where two headings read alike, the source gives them in different places.

Sequence of IKKε (Q14164 whole entry): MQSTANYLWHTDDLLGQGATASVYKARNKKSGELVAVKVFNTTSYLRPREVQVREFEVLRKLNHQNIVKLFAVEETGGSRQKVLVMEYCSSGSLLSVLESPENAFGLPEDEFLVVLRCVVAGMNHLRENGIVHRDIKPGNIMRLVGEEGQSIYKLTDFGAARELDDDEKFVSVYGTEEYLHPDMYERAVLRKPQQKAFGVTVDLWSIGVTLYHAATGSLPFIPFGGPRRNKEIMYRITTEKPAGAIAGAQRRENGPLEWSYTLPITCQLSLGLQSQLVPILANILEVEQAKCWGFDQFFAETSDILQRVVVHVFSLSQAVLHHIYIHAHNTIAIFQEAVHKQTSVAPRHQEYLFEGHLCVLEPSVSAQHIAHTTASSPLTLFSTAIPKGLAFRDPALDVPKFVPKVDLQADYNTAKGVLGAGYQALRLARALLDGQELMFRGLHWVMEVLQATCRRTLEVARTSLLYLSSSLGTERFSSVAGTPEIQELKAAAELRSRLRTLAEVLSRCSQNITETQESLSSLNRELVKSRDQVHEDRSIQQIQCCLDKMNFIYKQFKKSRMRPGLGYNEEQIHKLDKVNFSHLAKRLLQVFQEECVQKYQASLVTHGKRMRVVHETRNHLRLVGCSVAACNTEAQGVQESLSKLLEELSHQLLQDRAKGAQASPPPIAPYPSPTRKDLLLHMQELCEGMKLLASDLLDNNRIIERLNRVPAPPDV
Sequence of hJAK2 (O60674 whole entry): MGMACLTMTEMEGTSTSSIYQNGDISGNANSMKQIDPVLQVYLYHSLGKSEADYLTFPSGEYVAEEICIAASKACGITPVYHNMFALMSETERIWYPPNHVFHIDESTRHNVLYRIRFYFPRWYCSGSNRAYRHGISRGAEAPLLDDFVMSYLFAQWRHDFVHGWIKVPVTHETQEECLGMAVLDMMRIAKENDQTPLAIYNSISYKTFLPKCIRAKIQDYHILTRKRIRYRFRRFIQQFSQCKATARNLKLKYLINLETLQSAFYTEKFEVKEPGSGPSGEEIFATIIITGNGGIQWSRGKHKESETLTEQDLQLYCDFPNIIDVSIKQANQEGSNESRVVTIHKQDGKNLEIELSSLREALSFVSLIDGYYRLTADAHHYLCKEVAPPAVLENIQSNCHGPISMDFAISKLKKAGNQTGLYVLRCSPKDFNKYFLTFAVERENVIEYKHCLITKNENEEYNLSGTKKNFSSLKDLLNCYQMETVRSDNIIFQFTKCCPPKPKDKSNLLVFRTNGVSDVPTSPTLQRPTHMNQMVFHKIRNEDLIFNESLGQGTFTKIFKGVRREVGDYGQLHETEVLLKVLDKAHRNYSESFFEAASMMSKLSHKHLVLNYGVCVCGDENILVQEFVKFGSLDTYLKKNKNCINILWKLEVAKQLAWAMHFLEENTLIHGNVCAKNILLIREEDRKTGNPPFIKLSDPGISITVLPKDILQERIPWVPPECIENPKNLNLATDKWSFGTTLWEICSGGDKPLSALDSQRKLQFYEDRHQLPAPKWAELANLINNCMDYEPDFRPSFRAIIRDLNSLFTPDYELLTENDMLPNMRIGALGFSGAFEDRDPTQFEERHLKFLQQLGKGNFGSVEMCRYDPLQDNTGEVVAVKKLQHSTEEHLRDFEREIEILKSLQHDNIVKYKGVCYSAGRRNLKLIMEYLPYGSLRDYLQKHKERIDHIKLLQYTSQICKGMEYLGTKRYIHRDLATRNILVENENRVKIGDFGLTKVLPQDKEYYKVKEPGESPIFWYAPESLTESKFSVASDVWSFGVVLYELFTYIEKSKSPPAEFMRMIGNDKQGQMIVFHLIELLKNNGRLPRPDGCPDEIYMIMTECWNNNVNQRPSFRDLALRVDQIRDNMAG
Sequence of TBK1 (Q9UHD2 whole entry): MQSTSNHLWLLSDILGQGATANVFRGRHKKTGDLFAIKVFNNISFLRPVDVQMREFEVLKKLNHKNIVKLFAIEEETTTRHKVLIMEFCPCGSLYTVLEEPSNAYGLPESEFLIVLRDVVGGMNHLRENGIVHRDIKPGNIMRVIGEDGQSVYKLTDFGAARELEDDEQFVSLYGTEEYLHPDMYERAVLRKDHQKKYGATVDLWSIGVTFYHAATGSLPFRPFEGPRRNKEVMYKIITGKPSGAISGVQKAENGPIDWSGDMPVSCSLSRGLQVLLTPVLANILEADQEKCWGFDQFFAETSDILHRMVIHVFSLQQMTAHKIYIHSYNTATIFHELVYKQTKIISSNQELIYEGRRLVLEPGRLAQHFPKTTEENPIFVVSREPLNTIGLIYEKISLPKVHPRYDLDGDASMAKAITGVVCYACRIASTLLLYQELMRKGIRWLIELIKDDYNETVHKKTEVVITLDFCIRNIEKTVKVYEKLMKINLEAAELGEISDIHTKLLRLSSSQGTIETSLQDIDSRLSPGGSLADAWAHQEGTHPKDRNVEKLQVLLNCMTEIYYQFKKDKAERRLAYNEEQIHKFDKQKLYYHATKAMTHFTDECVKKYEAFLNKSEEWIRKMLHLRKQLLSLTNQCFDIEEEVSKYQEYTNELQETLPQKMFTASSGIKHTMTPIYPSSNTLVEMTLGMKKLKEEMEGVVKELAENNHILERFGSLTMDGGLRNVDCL

As to `C[C@H](O)C(=O)N1CC[C@H](Oc2ccc(-c3ncnc(Nc4ccc(N5CCN(C6CCOCC6)CC5)cc4)n3)cc2C#N)[C@H](F)C1` [Example 309, 2-(((3R,4S)-3-fluoro-1-((S)-2-hydroxypropanoyl)piperidin-4-yl)oxy)-5-(4-((4-(4-(tetrahydro-2H-pyran-4-yl)piperazin-1-yl)phenyl)amino)-1,3,5-triazin-2-yl)benzonitrile], the IC50 in test [1] turned out to be 0.001 µM; in test [2] it was 0.002 µM; in test [3], 0.423 µM.

Regarding `N#Cc1cc(-c2ncnc(Nc3ccc(N4CCN(C5COC5)CC4)cc3)n2)ccc1O[C@H]1CCN(C(=O)[C@@H]2CCCCN2)C[C@H]1F` [Example 131, 2-(((3R,4S)-3-fluoro-1-((S)-piperidine-2-carbonyl)piperidin-4-yl)oxy)-5-(4-((4-(4-(oxetan-3-yl)piperazin-1-yl)phenyl)amino)-1,3,5-triazin-2-yl)benzonitrile], the IC50 is 0.175 µM in test [1], 0.101 µM in test [2] and ≥ 1 µM in test [3].

Take `N#Cc1cc(-c2ncnc(Nc3ccc(N4CCN(C5COC5)CC4)cc3)n2)ccc1OC1CCSCC1` [Example 19, 5-(4-((4-(4-(oxetan-3-yl)piperazin-1-yl)phenyl)amino)-1,3,5-triazin-2-yl)-2-((tetrahydro-2H-thiopyran-4-yl)oxy)benzonitrile]: the IC50 in test [1] is 0.004 µM; in test [2], 0.001 µM; in test [3], > 1 µM.

For `C[C@H](O)C(=O)N1CC[C@H](Oc2c(F)cc(-c3ncnc(Nc4ccc(N5CCN(C6COC6)CC5)cc4)n3)cc2C#N)[C@H](F)C1` [Example 328, 3-fluoro-2-(((3R,4S)-3-fluoro-1-((S)-2-hydroxypropanoyl)piperidin-4-yl)oxy)-5-(4-((4-(4-(oxetan-3-yl)piperazin-1-yl)phenyl)amino)-1,3,5-triazin-2-yl)benzonitrile], the IC50 in test [1] is 0.004 µM; in test [2], 0.004 µM; in test [3], ≥ 1 µM.

Consider `N#Cc1cc(-c2ncnc(Nc3ccc(N4CCN(C5COC5)CC4)cc3)n2)ccc1OC1CCC2(CC1)OCCO2` [Example 279, 2-(1,4-dioxaspiro[4.5]decan-8-yloxy)-5-(4-((4-(4-(oxetan-3-yl)piperazin-1-yl)phenyl)amino)-1,3,5-triazin-2-yl)benzonitrile], for which the IC50 in test [1] is 0.075 µM; in test [2] it was 0.027 µM; in test [3], ≥ 1 µM.

Turning to `C[C@H]1CN(C(=O)CO)C[C@@H]1Oc1ccc(-c2ncnc(Nc3ccc(N4CCN(C5COC5)CC4)cc3)n2)cc1C#N` [Example 192, 2-(((3R,4S)-1-(2-hydroxyacetyl)-4-methylpyrrolidin-3-yl)oxy)-5-(4-((4-(4-(oxetan-3-yl)piperazin-1-yl)phenyl)amino)-1,3,5-triazin-2-yl)benzonitrile], the IC50 in test [1] is 0.03 µM; in test [2] it was 0.008 µM; in test [3] it was ≥ 1 µM.

Take `C[C@H]1C[C@H](Oc2ccc(-c3ncnc(Nc4ccc(N5CCN(C6COC6)CC5)cc4)n3)cc2C#N)[C@H](F)CN1C(=O)CO` [Example 115, 2-(((2S,4S,5R)-5-fluoro-1-(2-hydroxyacetyl)-2-methylpiperidin-4-yl)oxy)-5-(4-((4-(4-(oxetan-3-yl)piperazin-1-yl)phenyl)amino)-1,3,5-triazin-2-yl)benzonitrile]: the IC50 in test [1] is 0.021 µM; in test [2] it was 0.012 µM; in test [3] it was ≥ 1 µM.

Turning to `N#Cc1cc(-c2ncnc(Nc3ccc(N4CCN(C5COC5)CC4)cc3)n2)ccc1O[C@@H]1CCN(C(=O)C2COC2)C1` [Example 92, (R)-5-(4-((4-(4-(oxetan-3-yl)piperazin-1-yl)phenyl)amino)-1,3,5-triazin-2-yl)-2-((1-(oxetane-3-carbonyl)pyrrolidin-3-yl)oxy)benzonitrile], the IC50 in test [1] was 0.197 µM; in test [2], 0.045 µM; in test [3], > 1 µM.

With `COc1cc(Nc2ncnc(-c3ccc(O[C@H]4CCN(C(=O)CO)C[C@H]4F)c(C#N)c3)n2)ccc1N1CCN(C2COC2)CC1` [Example 392, 2-(((3R,4S)-3-fluoro-1-(2-hydroxyacetyl)piperidin-4-yl)oxy)-5-(4-((3-methoxy-4-(4-(oxetan-3-yl)piperazin-1-yl)phenyl)amino)-1,3,5-triazin-2-yl)benzonitrile], the IC50 in test [1] amounted to 0.001 µM; in test [2], 0.005 µM; in test [3], 0.026 µM.

Consider `C[C@H](O)C(=O)N1CC[C@H](Oc2ccc(-c3ncnc(Nc4ccc(N5CCN(C6COC6)[C@@H](CO)C5)cc4)n3)cc2C#N)C(F)(F)C1` [Example 469, 2-(((S)-3,3-difluoro-1-((S)-2-hydroxypropanoyl)piperidin-4-yl)oxy)-5-(4-((4-((R)-3-(hydroxymethyl)-4-(oxetan-3-yl)piperazin-1-yl)phenyl)amino)-1,3,5-triazin-2-yl)benzonitrile], for which the results for the IC50 in test [1] (setting [4]), in test [2] and in test [3] were 0.001 µM, 0.002 µM and 0.197 µM, respectively.

With `C[C@H](O)C(=O)N1CC[C@H](Oc2ccc(-c3ncnc(Nc4cnn(C5CCOCC5)c4)n3)cc2C#N)[C@H](F)C1` [Example 354, 2-(((3R,4S)-3-fluoro-1-((S)-2-hydroxypropanoyl)piperidin-4-yl)oxy)-5-(4-((1-(tetrahydro-2H-pyran-4-yl)-1H-pyrazol-4-yl)amino)-1,3,5-triazin-2-yl)benzonitrile], the IC50 was 0.005 µM in test [1], 0.006 µM in test [2] and 0.309 µM in test [3].

For `N#Cc1cc(-c2ncnc(Nc3ccc(N4CCN(C5COC5)CC4)cc3)n2)ccc1N1CC2(CCOCC2)C1` [Example 211, 5-(4-((4-(4-(oxetan-3-yl)piperazin-1-yl)phenyl)amino)-1,3,5-triazin-2-yl)-2-(7-oxa-2-azaspiro[3.5]nonan-2-yl)benzonitrile], the IC50 in test [1] was determined as 0.022 µM; in test [2] it was 0.006 µM; in test [3] it was 0.17 µM.

As for `CC(C#N)C(=O)N1CC[C@H](Oc2ccc(-c3ncnc(Nc4ccc(N5CCN(C6COC6)CC5)cc4)n3)cc2C#N)[C@H](F)C1` (stereo partly drawn) [Example 586, 2-(((3R,4S)-1-(2-cyanopropanoyl)-3-fluoropiperidin-4-yl)oxy)-5-(4-((4-(4-(oxetan-3-yl)piperazin-1-yl)phenyl)amino)-1,3,5-triazin-2-yl)benzonitrile], the IC50 in test [1] (setting [4]) came to 0.028 µM; in test [2], 0.011 µM; in test [3], 0.212 µM.

For `Cc1cc(-c2ncnc(Nc3ccc(N4CCN(C5COC5)CC4)cc3)n2)cc(C#N)c1O[C@H]1CCN(C(=O)CO)C[C@H]1F` [Example 522, 2-(((3R,4S)-3-fluoro-1-(2-hydroxyacetyl)piperidin-4-yl)oxy)-3-methyl-5-(4-((4-(4-(oxetan-3-yl)piperazin-1-yl)phenyl)amino)-1,3,5-triazin-2-yl)benzonitrile], the IC50 was 0.028 µM in test [1] (setting [4]), 0.014 µM in test [2] and ≥ 1 µM in test [3].

With `N#Cc1cc(-c2ncnc(Nc3ccc(N4CCN(C5COC5)CC4)cc3)n2)ccc1F` [Example 87, 2-Fluoro-5-(4-((4-(4-(oxetan-3-yl)piperazin-1-yl)phenyl)amino)-1,3,5-triazin-2-yl)benzonitrile], the IC50 was > 1 µM in test [1], 0.853 µM in test [2] and > 1 µM in test [3].

For `N#Cc1cc(-c2ncnc(Nc3ccc(N4CCN(C5COC5)CC4)cc3)n2)ccc1OC1COC1` [Example 5, 5-(4-((4-(4-(oxetan-3-yl)piperazin-1-yl)phenyl)amino)-1,3,5-triazin-2-yl)-2-(oxetan-3-yloxy)benzonitrile], the IC50 in test [1] was 0.101 µM; in test [2], 0.035 µM; in test [3] it was 0.269 µM.

`N#Cc1cc(-c2ncnc(Nc3ccc(N4CCN(C5COC5)CC4)cc3)n2)ccc1OCCNC(N)=O` [Example 602, 1-(2-(2-cyano-4-(4-((4-(4-(oxetan-3-yl)piperazin-1-yl)phenyl)amino)-1,3,5-triazin-2-yl)phenoxy)ethyl)urea]: the IC50 in test [1] is 0.619 µM; in test [2] it was 0.126 µM; in test [3] it was ≥ 1 µM.

As for `N#Cc1cc(-c2ncnc(Nc3ccc(N4CCN(C5COC5)CC4)cc3)n2)ccc1OC1CCCCC1` [Example 217, 2-(cyclohexyloxy)-5-(4-((4-(4-(oxetan-3-yl)piperazin-1-yl)phenyl)amino)-1,3,5-triazin-2-yl)benzonitrile], the figures for the IC50 in test [1], in test [2] and in test [3] were 0.014 µM, 0.004 µM and 0.98 µM, respectively.

`N#Cc1cc(-c2ncnc(Nc3ccc(N4CCN(C5COC5)CC4)c(F)c3)n2)ccc1O[C@H]1CCN(C(=O)c2cnn[nH]2)C[C@H]1F` [Example 373, 2-(((3R,4S)-3-fluoro-1-(1H-1,2,3-triazole-5-carbonyl)piperidin-4-yl)oxy)-5-(4-((3-fluoro-4-(4-(oxetan-3-yl)piperazin-1-yl)phenyl)amino)-1,3,5-triazin-2-yl)benzonitrile]: the IC50 in test [1] turned out to be 0.001 µM; in test [2], 0.002 µM; in test [3], 0.146 µM.

Take `C[C@H](O)C(=O)N1CC[C@H](Oc2ccc(-c3ncnc(Nc4ccc(N5CCN(C6COC6)CC5=O)cc4)n3)cc2C#N)[C@H](F)C1` [Example 462, 2-(((3R,4S)-3-fluoro-1-((S)-2-hydroxypropanoyl)piperidin-4-yl)oxy)-5-(4-((4-(4-(oxetan-3-yl)-2-oxopiperazin-1-yl)phenyl)amino)-1,3,5-triazin-2-yl)benzonitrile]: the IC50 in test [1] (setting [4]) is 0.004 µM; in test [2], 0.003 µM; in test [3], ≥ 1 µM.

Consider `C[C@H](O)C(=O)N1CC[C@H](Nc2ccc(-c3ncnc(Nc4ccc(N5CCN(C6COC6)CC5)cc4)n3)cc2C#N)[C@H](F)C1` [Example 613, 2-(((3R,4S)-3-fluoro-1-((S)-2-hydroxypropanoyl)piperidin-4-yl)amino)-5-(4-((4-(4-(oxetan-3-yl)piperazin-1-yl)phenyl)amino)-1,3,5-triazin-2-yl)benzonitrile], for which the concentration for half-maximal inhibition (IC50) stood at 0.175 µM in test [1], 0.128 µM in test [2] and 0.069 µM in test [3].

What is called IC50 is the concentration that gives 50% inhibition.

(Values after US10040781B2, “Tank-binding kinase inhibitor compounds” (Gilead Sciences, Inc., priority 2014, dated 2018).)
